Laboratory results from PubChem BioAssay (NCI).
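The concentration for 50% growth inhibition is given as GI50. TGI marks complete inhibition of growth.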

Assays:
Test in all cases: NCI tumour cell line growth inhibition, 384-well format
A498 renal = test system: A498 renal
A549 NSCLC = test system: A549 NSCLC
ACHN renal = test system: ACHN renal
BT-549 breast = test system: BT-549 breast
CAKI-1 renal = test system: CAKI-1 renal
COLO 205 colon = test system: COLO 205 colon
DU-145 prostate = test system: DU-145 prostate
EKVX NSCLC = test system: EKVX NSCLC
HCC-2998 colon = test system: HCC-2998 colon
HCT-116 colon = test system: HCT-116 colon
HCT-15 colon = test system: HCT-15 colon
HL-60(TB) leukemia = test system: HL-60(TB) leukemia
HOP-62 NSCLC = test system: HOP-62 NSCLC
HS 578T breast = test system: HS 578T breast
IGROV1 ovarian = test system: IGROV1 ovarian
KM12 colon = test system: KM12 colon
LOX IMVI melanoma = test system: LOX IMVI melanoma
M14 melanoma = test system: M14 melanoma
MALME-3M melanoma = test system: MALME-3M melanoma
MCF7 breast = test system: MCF7 breast
MDA-MB-231 breast = test system: MDA-MB-231 breast
MDA-MB-435 melanoma = test system: MDA-MB-435 melanoma
MDA-MB-468 breast = test system: MDA-MB-468 breast
MOLT-4 leukemia = test system: MOLT-4 leukemia
NCI-H226 lung = test system: NCI-H226 lung
NCI-H23 lung = test system: NCI-H23 lung
NCI-H322M lung = test system: NCI-H322M lung
NCI-H460 NSCLC = test system: NCI-H460 NSCLC
NCI-H522 lung = test system: NCI-H522 lung
NCI/ADR-RES ovarian = test system: NCI/ADR-RES ovarian
OVCAR-3 ovarian = test system: OVCAR-3 ovarian
OVCAR-4 ovarian = test system: OVCAR-4 ovarian
OVCAR-5 ovarian = test system: OVCAR-5 ovarian
PC-3 prostate = test system: PC-3 prostate
RPMI-8226 leukemia = test system: RPMI-8226 leukemia
SF-268 CNS = test system: SF-268 CNS
SF-295 CNS = test system: SF-295 CNS
SF-539 CNS = test system: SF-539 CNS
SK-MEL-28 melanoma = test system: SK-MEL-28 melanoma
SK-MEL-5 melanoma = test system: SK-MEL-5 melanoma
SK-OV-3 ovarian = test system: SK-OV-3 ovarian
SN12C renal = test system: SN12C renal
SNB-75 CNS = test system: SNB-75 CNS
SR leukemia = test system: SR leukemia
TK-10 renal = test system: TK-10 renal
U251 glioblastoma = test system: U251 glioblastoma
UACC-257 melanoma = test system: UACC-257 melanoma
UACC-62 melanoma = test system: UACC-62 melanoma

CC(C)(C)c1cnc(CSc2cnc(NC(=O)C3CCNCC3)s2)o1
GI50 (A498 renal): 0.24 µM | TGI (A498 renal): 0.627 µM | GI50 (A549 NSCLC): 0.101 µM | TGI (A549 NSCLC): > 100 µM | GI50 (ACHN renal): 0.95 µM | TGI (ACHN renal): 34.1 µM | GI50 (BT-549 breast): 0.114 µM | TGI (BT-549 breast): 0.277 µM | GI50 (CAKI-1 renal): 0.394 µM | TGI (CAKI-1 renal): > 100 µM | GI50 (COLO 205 colon): 0.025 µM | TGI (COLO 205 colon): 0.0628 µM | GI50 (DU-145 prostate): 0.042 µM | TGI (DU-145 prostate): 0.299 µM | GI50 (EKVX NSCLC): 0.204 µM | TGI (EKVX NSCLC): 1.07 µM | GI50 (HCC-2998 colon): 0.0518 µM | TGI (HCC-2998 colon): 0.208 µM | GI50 (HCT-116 colon): 0.0323 µM | TGI (HCT-116 colon): > 100 µM | GI50 (HCT-15 colon): 2.45 µM | TGI (HCT-15 colon): > 100 µM | GI50 (HL-60(TB) leukemia): 0.0143 µM | TGI (HL-60(TB) leukemia): 0.0275 µM | GI50 (HOP-62 NSCLC): 0.066 µM | TGI (HOP-62 NSCLC): 0.33 µM | GI50 (HS 578T breast): 0.136 µM | TGI (HS 578T breast): 0.431 µM | GI50 (IGROV1 ovarian): 0.0531 µM | TGI (IGROV1 ovarian): 0.566 µM | GI50 (KM12 colon): 0.035 µM | TGI (KM12 colon): 13.7 µM | GI50 (LOX IMVI melanoma): 0.0241 µM | TGI (LOX IMVI melanoma): 0.0599 µM | GI50 (M14 melanoma): 0.166 µM | TGI (M14 melanoma): 0.425 µM | GI50 (MALME-3M melanoma): 0.123 µM | TGI (MALME-3M melanoma): 0.264 µM | GI50 (MCF7 breast): 0.0298 µM | TGI (MCF7 breast): 16.9 µM | GI50 (MDA-MB-231 breast): 0.0624 µM | TGI (MDA-MB-231 breast): > 100 µM | GI50 (MDA-MB-435 melanoma): 0.113 µM | TGI (MDA-MB-435 melanoma): 0.322 µM | GI50 (MDA-MB-468 breast): 0.0508 µM | TGI (MDA-MB-468 breast): 0.176 µM | GI50 (MOLT-4 leukemia): 0.0374 µM | TGI (MOLT-4 leukemia): 0.104 µM | GI50 (NCI-H226 lung): 0.188 µM | TGI (NCI-H226 lung): 0.68 µM | GI50 (NCI-H23 lung): 0.0783 µM | TGI (NCI-H23 lung): 0.212 µM | GI50 (NCI-H322M lung): 0.0381 µM | TGI (NCI-H322M lung): 0.159 µM | GI50 (NCI-H460 NSCLC): 0.0686 µM | TGI (NCI-H460 NSCLC): 0.256 µM | GI50 (NCI-H522 lung): 0.147 µM | TGI (NCI-H522 lung): 0.306 µM | GI50 (NCI/ADR-RES ovarian): 26.3 µM | TGI (NCI/ADR-RES ovarian): > 100 µM | GI50 (OVCAR-3 ovarian): 0.0464 µM | TGI (OVCAR-3 ovarian): 0.221 µM | GI50 (OVCAR-4 ovarian): 0.0637 µM | TGI (OVCAR-4 ovarian): 0.368 µM | GI50 (OVCAR-5 ovarian): 0.0252 µM | TGI (OVCAR-5 ovarian): 0.0594 µM | GI50 (PC-3 prostate): 0.0709 µM | TGI (PC-3 prostate): 0.397 µM | GI50 (RPMI-8226 leukemia): 0.0273 µM | TGI (RPMI-8226 leukemia): 0.0704 µM | GI50 (SF-268 CNS): 0.041 µM | TGI (SF-268 CNS): 0.264 µM | GI50 (SF-295 CNS): 0.373 µM | TGI (SF-295 CNS): 27.1 µM | GI50 (SF-539 CNS): 0.0354 µM | TGI (SF-539 CNS): 0.134 µM | GI50 (SK-MEL-28 melanoma): 0.12 µM | TGI (SK-MEL-28 melanoma): 0.285 µM | GI50 (SK-MEL-5 melanoma): 0.109 µM | TGI (SK-MEL-5 melanoma): 0.249 µM | GI50 (SK-OV-3 ovarian): 0.192 µM | TGI (SK-OV-3 ovarian): > 100 µM | GI50 (SN12C renal): 0.0384 µM | TGI (SN12C renal): 0.186 µM | GI50 (SNB-75 CNS): 0.124 µM | TGI (SNB-75 CNS): 0.278 µM | GI50 (SR leukemia): 0.0121 µM | TGI (SR leukemia): 0.0246 µM | GI50 (TK-10 renal): 0.232 µM | TGI (TK-10 renal): 0.799 µM | GI50 (U251 glioblastoma): 0.107 µM | TGI (U251 glioblastoma): 0.547 µM | GI50 (UACC-257 melanoma): 0.166 µM | TGI (UACC-257 melanoma): 0.35 µM | GI50 (UACC-62 melanoma): 0.0473 µM | TGI (UACC-62 melanoma): 0.191 µM
